Laboratory results as given in patent US9616006B2, “Methods and compositions for treating dermatological diseases and conditions” (priority 2007, dated 2017).

Columns and labels:
[1] = system: MCP-1; assay: LPS-induced MCP-1 production in monocytes; assay type: cell-based
Excerpt: (§1) DHE and IE both have inhibitory effects on the production of the inflammatory mediators in monocytes.

[2] = system: PGE-2; assay: IL-1-induced PGE-2 production in fibroblasts (ELISA); assay type: cell-based, human; settings: Fibroblasts (IL-1); 100 uM
Experimental: (§2) In one study, various concentrations of DHE were added to culture medium and these media were placed on human fibroblast cell cultures (results shown in FIG. 1). […] At 24 hours after treatment, the cell culture medium was removed and assayed by ELISA methods for the expression of PGE-2, various cytokines and chemokines.
(§3) DHE and IE both have inhibitory effects on the production of the inflammatory mediators in fibroblasts.

[3] = system: collagen 1 mRNA; assay: Collagen mRNA in fibroblasts by RT-PCR; assay type: cell-based, human; settings: fibroblast cell cultures treated 72 hours
Excerpt: (§4) The presently claimed and disclosed inventive concept(s) further contemplates use of various DHE, IE and EV compositions and salts, esters, ethers, and derivatives thereof to mitigate the effects of aging on the skin. For all aging studies, normal human fibroblast cell cultures were used. These cells normally produce collagen, elastin and hyaluronic acid. As the skin ages, the fibroblasts in the dermis lose their ability to produce these three key components of skin, and the skin consequently loses elasticity, thickness and smooth texture. In addition, as fibroblasts age, they increase the expression of certain enzymes that destroy collagen and elastin. There are about 13 of these enzymes, collectively referred to as MMPs (matrix metalloproteinases). One of the principal MMPs, MMP-1, is responsible for collagen degradation. […] Fibroblast cell cultures were treated with either IE, DHE or EV for 72 hours at which time the amount of collagen mRNA present in the cells was determined.

[4] = system: PGE2; assay: TPA-induced PGE2 production in keratinocytes (ELISA); assay type: cell-based, human; settings: 100 uM
[5] = system: IL-6; assay: IL-1-induced IL-6 production in fibroblasts (ELISA); assay type: cell-based, human; settings: Fibroblasts (IL-1); 100 uM
Experimental: as §2, §3

[6] = system: IL-8; assay: TPA-induced IL-8 production in keratinocytes (ELISA); assay type: cell-based, human; settings: 100 uM
[7] = system: IL-6; assay: TPA-induced IL-6 production in keratinocytes (ELISA); assay type: cell-based, human; settings: 100 uM
[8] = system: MCP-1; assay: TNF-α-induced MCP-1 production in monocytes; assay type: cell-based; settings: 100 uM
Excerpt: as §1

[9] = system: IL-8; assay: TNF-α-induced IL-8 production in monocytes; assay type: cell-based; settings: 100 uM
Excerpt: as §1

[10] = system: IL-6; assay: UV-induced IL-6 production in keratinocytes (ELISA); assay type: cell-based, human; settings: 100 uM
Experimental: (§5) In one study, various concentrations of DHE were added to culture medium and these media were placed on human fibroblast cell cultures (results shown in FIG. 1). Cells were either not induced or induced with UVB radiation to stimulate cytokine/PGE-2 production. At 24 hours after treatment, the cell culture medium was removed and assayed by ELISA methods for the expression of PGE-2, various cytokines and chemokines.
(§6) When similar experiments were carried out with human keratinocytes, DHE was again found to markedly suppress the UVR induction of PGE-2, with a concentration of 50 uM inhibiting the production of PGE-2 by over 60% (results shown in FIG. 2). […] Further, since PGE-2 is known to be a principal factor in the development of actinic keratosis and skin cancer, DHE can also be used in treating these conditions.
(§7) DHE and IE both have inhibitory effects on production of the inflammatory mediators in keratinocytes.

[11] = system: IL-8; assay: LPS-induced IL-8 production in monocytes; assay type: cell-based
Excerpt: as §1

[12] = system: IL-12; assay: TNF-α-induced IL-12 production in monocytes; assay type: cell-based; settings: 100 uM
Excerpt: as §1

[13] = system: IL-8; assay: IL-1-induced IL-8 production in fibroblasts (ELISA); assay type: cell-based, human; settings: Fibroblasts (IL-1); 100 uM
[14] = system: PGE-2; assay: UV-induced PGE-2 production in fibroblasts (ELISA); assay type: cell-based, human
Experimental: as §5
As is shown in FIG. 1, UV radiation (UVR) treatment of fibroblasts results in a 6 fold increase in PGE-2.
as §3

[15] = system: IL-8; assay: UV-induced IL-8 production in fibroblasts (ELISA); assay type: cell-based, human; settings: 100 uM
Experimental: as §5, §3

[16] = system: TNF-α; assay: UV-induced TNF-α production in keratinocytes (ELISA); assay type: cell-based, human; settings: 100 uM
Experimental: as §5, §6, §7

[17] = system: TIMP-1; assay: TIMP-1 mRNA in fibroblasts by PCR; assay type: cell-based, human
Excerpt: (§8) The presently claimed and disclosed inventive concept(s) further contemplates use of various DHE, IE and EV compositions and salts, esters, ethers, and derivatives thereof to mitigate the effects of aging on the skin. For all aging studies, normal human fibroblast cell cultures were used. These cells normally produce collagen, elastin and hyaluronic acid. As the skin ages, the fibroblasts in the dermis lose their ability to produce these three key components of skin, and the skin consequently loses elasticity, thickness and smooth texture. In addition, as fibroblasts age, they increase the expression of certain enzymes that destroy collagen and elastin. There are about 13 of these enzymes, collectively referred to as MMPs (matrix metalloproteinases). One of the principal MMPs, MMP-1, is responsible for collagen degradation. For experiments herein to determine the effects of DHE, IE and EV on collagen, elastin and hyaluronic acid, fibroblasts were treated with the compounds for 72 hours, mRNA was then isolated, and analyzed for abundance by RT-PCR (Reverse transcriptase-Polymerase Chain Reaction).
Fibroblasts in the skin not only produce enzymes (MMPs) that destroy the skin matrix but they also produce proteins (Tissue Inhibitors of Metalloproteinases, i.e., TIMPS) that inhibit these enzymes. There are several TIMPs, but one that is most important for inhibiting MMPs is TIMP-1. […] Shown in FIG. 11 is PCR data showing the up-regulation of TIMP-1 mRNA by these compounds.

[18] = system: HAS-2 (Hyaluronic acid synthase-2); assay: HAS-2 mRNA in fibroblasts by RT-PCR; assay type: cell-based, human; settings: 72 hours
Excerpt: as §8
DHE, IE and EV, are also shown herein to stimulate mRNA for HAS-2. HAS-2 (Hyaluronic acid synthase-2) is the enzyme that manufactures hyaluronic acid (HA) in the skin. HA is a glycosaminoglycan important for maintaining moisture and suppleness in the skin. […] As the skin ages, the production of HA decreases and this causes the skin to sag and become thin.

[19] = system: PGE2; assay: UV-induced PGE2 production in keratinocytes (ELISA); assay type: cell-based, human
Experimental: as §5, §6, §7

[20] = system: IL-8; assay: UV-induced IL-8 production in keratinocytes (ELISA); assay type: cell-based, human; settings: 100 uM
Experimental: as §5, §6, §7

[21] = system: TNF-α; assay: TPA-induced TNF-α production in keratinocytes (ELISA); assay type: cell-based, human
Experimental: as §5, §6
Inflammatory mediators produced in the skin contribute to the development and propagation of such diseases as rosacea, psoriasis and atopic dermatitis. While many inflammatory mediators are involved in these diseases, TNF-α is known to be a major cytokine involved in psoriasis. For atopic dermatitis, TNF-α, IL-8, and MCP-1 are important mediators of inflammation in these diseases. DHE is effective in suppressing the TPA-induced (TPA is tetradecanolyl phorbol ester) production of TNF-α by approximately 50% at a 100 micromolar concentration (results shown in FIG. 3).
as §7

[22] = system: IL-12; assay: LPS-induced IL-12 production in monocytes; assay type: cell-based; settings: 100 uM
Excerpt: as §1

[23] = system: TNF-α; assay: LPS-induced TNF-α production in monocytes; assay type: cell-based
Excerpt: as §1

[24] = system: IL-6; assay: UV-induced IL-6 production in fibroblasts (ELISA); assay type: cell-based, human; settings: 100 uM
Experimental: as §5, §3

[25] = system: elastin mRNA; assay: Elastin mRNA in human dermal fibroblasts by RT-PCR; assay type: cell-based; settings: 72 hours
Excerpt: as §4, with “In addition, as fibroblasts age, they increase the expression of certain enzymes that destroy collagen and elastin.” left out, “The image is from an electrophoresis gel of DNA amplified by PCR from fibroblast mRNA. This gel was analyzed and” for “Fibroblast cell cultures were treated with either IE, DHE or EV for 72 hours at which time”, “density” for “amount”, “each band quantified by image analysis software.” for “collagen mRNA present in the cells was determined.”

[26] = system: human melanocyte cultures; assay: Pigment in human melanocyte cultures; assay type: cell-based; settings: treated for 9 days
[27] = system: tyrosinase; assay: DOPA oxidase assay of cell extracts from treated human melanocytes; assay type: cell-based; settings: extracts of human melanocytes treated for 9 days
Experimental: Cell lysates were prepared from human melanocytes. The amount of tyrosinase in these cell lysates was determined by DOPA oxidase assay.
(§9) FIGS. 14-17 show the skin-lightening effects of topically-applied formulations of isoeugenol and its ester isoeugenol acetate (a.k.a. isoeugenyl acetate) in the treatment of hyperpigmented areas in the skin, wherein a reduction of melanin pigment in the skin is caused by the topical application of the formulations. In addition to blocking a post-tyrosinase step in melanin synthesis, IE and IE acetate can inhibit the expression of the tyrosinase protein in human melanocytes. […] If the cell extracts contain tyrosinase when an aliquot of extract is placed in a tube containing L-DOPA (a tyrosinase substrate) in buffer, the enzyme will convert the DOPA to melanin. The melanin will appear brownish-black in the assay tube. If IE or IE-acetate has inhibited tyrosinase synthesis in melanocytes, then the extracts from these cells will contain no enzyme and will not be able to produce melanin from DOPA in the assay tube. […] In this assay, cell extracts from human melanocytes either left untreated or treated with 200 micromolar of either IE or isoeugenol acetate for 9 days are run on SDS polyacrylamide electrophoresis gels to separate tyrosinase from other proteins. The tyrosinase in the gel is then blotted to a membrane and the tyrosinase detected by staining with a specific anti-tyrosinase antibody. The antibody-bound tyrosinase is then visualized by chemiluminescence.

[28] = system: tyrosinase; assay: Western immunoblot of tyrosinase abundance in human melanocyte extracts; assay type: cell-based
Excerpt: as §9

[29] = monocytes, LPS-induced (FIG. 4)

SMILES: CCCc1ccc(O)c(OC)c1 [DHE, dihydroeugenol]
- Percent Inhibition of MCP-1 ([1]; Monocytes (LPS), 100 uM): 60%
- production of the chemokine MCP-1 [1, 29]: can inhibit the production
- Percent Inhibition of PGE-2 [2]: 86%
- collagen production (collagen mRNA) [3]: stimulation
- Percent Inhibition of PGE2 [4]: 77%
- Percent Inhibition of IL-6 [5]: 47%
- Percent Inhibition of IL-8 [6]: 45%
- Percent Inhibition of IL-6 [7]: 30%
- Percent Inhibition of MCP-1 [8]: 46%
- Percent Inhibition of IL-8 [9]: 72%
- Percent Inhibition of IL-6 [10]: 30%
- Percent Inhibition of IL-8 ([11]; Monocytes (LPS), 100 uM): 70%
- production of the chemokine IL-8 [11, 29]: can inhibit the production
- Percent Inhibition of IL-12 [12]: 98%
- Percent Inhibition of IL-8 [13]: 46%
- Percent Inhibition of PGE-2 ([14]; Fibroblasts (UV), 100 uM): 67%
- UVR induction of PGE-2 ([14]; human fibroblasts, 10 micromolar in culture media after irradiation, 24 hours): completely blocked
- Percent Inhibition of IL-8 [15]: 11%
- Percent Inhibition of TNF-α [16]: 31%
- production of TIMP-1 (TIMP-1 mRNA) [17]: significantly stimulate
- mRNA for HAS-2 [18]: stimulate
- Percent Inhibition of PGE2 ([19]; Keratinocytes (UV), 100 uM): 68%
- inhibition of UVR-induced production of PGE-2 ([19]; human keratinocytes, 50 uM): over 60%
- Percent Inhibition of IL-8 [20]: 40%
- Percent Inhibition of TNF-α ([21]; Keratinocytes (TPA), 100 uM): 12%
- suppression of TPA-induced production of TNF-α ([21]; keratinocytes (FIG. 3), 100 micromolar): approximately 50%
- Percent Inhibition of IL-12 [22]: 66%
- Percent Inhibition of TNF-α ([23]; Monocytes (LPS), 100 uM): 78%
- production of the cytokine TNF-α [23, 29]: can inhibit the production
- Percent Inhibition of IL-6 [24]: 49%
- elastin levels (elastin mRNA) [25]: increase

SMILES: CC=Cc1ccc(OC(C)=O)c(OC)c1 [isoeugenol acetate]
- pigment in human melanocyte cultures [26]: loss of pigment
- tyrosinase activity / melanin made from L-DOPA by cell extracts ([27]; listed as IE-acetate): very little melanin was made
- tyrosinase activity / melanin made from L-DOPA by cell extracts ([27]; listed as TH-213): absence of tyrosinase activity
- tyrosinase abundance (relative densitometric units) ([28]; human melanocyte extracts, 200 μM, 9 days, control approximately 7.25 RDU): ~3.75 RDU
- tyrosinase present (western immunoblot) ([28]; human melanocytes treated with 200 micromolar for 9 days): almost no detectable tyrosinase
